Drawing on PubChem BioAssay AID256 (DTP/NCI, 2004), this text covers T/C for 19 compounds.

The assay relates to CD2F1 mice, L1210 leukemia ip, survival T/C. Description: NCI In Vivo Anticancer Drug Screen. Data for tumor model L1210 Leukemia (intraperitoneal) in CD2F1 (CDF1) mice. The conditions noted are these: higher = longer survival. In short, it runs like this: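 Mice carrying a transplanted tumor received test compound or vehicle alone. The value is the measurement in the treated group divided by that in the vehicle-treated control group.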

The mark [1] stands for this setting: endpoint: mean survival time, dose: 100.0 mg/kg/injection, schedule: Q04DX002 (ip), vehicle: saline with Tween-80.
Where [2] appears, read: endpoint: mean survival time, dose: 200.0 mg/kg/injection, schedule: Q04DX002 (ip), vehicle: saline with Tween-80.
The mark [3] stands for this setting: endpoint: mean survival time, dose: 400.0 mg/kg/injection, schedule: Q04DX002 (ip), vehicle: saline with Tween-80.
[4] abbreviates: endpoint: mean survival time, dose: 100.0 mg/kg/injection, schedule: Q04DX003 (ip), vehicle: saline with Tween-80.
Where [5] appears, read: endpoint: mean survival time, dose: 200.0 mg/kg/injection, schedule: Q04DX003 (ip), vehicle: saline with Tween-80.
Setting [6] is: endpoint: mean survival time, dose: 400.0 mg/kg/injection, schedule: Q04DX003 (ip), vehicle: saline with Tween-80.
The mark [7] stands for this setting: endpoint: mean survival time, dose: 50.0 mg/kg/injection, schedule: Q01DX009 (ip), vehicle: saline.
Setting [8] is: endpoint: mean survival time, dose: 100.0 mg/kg/injection, schedule: Q01DX001 (ip), vehicle: saline.
The mark [9] stands for this setting: endpoint: mean survival time, dose: 100.0 mg/kg/injection, schedule: Q01DX009 (ip), vehicle: saline.
The mark [10] stands for this setting: endpoint: mean survival time, dose: 200.0 mg/kg/injection, schedule: Q01DX001 (ip), vehicle: saline.
[11] abbreviates: endpoint: mean survival time, dose: 200.0 mg/kg/injection, schedule: Q01DX009 (ip), vehicle: saline.
The mark [12] stands for this setting: endpoint: mean survival time, dose: 400.0 mg/kg/injection, schedule: Q01DX001 (ip), vehicle: saline.
Where [13] appears, read: endpoint: mean survival time, dose: 100.0 mg/kg/injection, schedule: Q01DX009 (ip), vehicle: saline with Tween-80.
[14] abbreviates: endpoint: mean survival time, dose: 50.0 mg/kg/injection, schedule: Q04DX002 (ip), vehicle: saline with Tween-80.
[15] abbreviates: endpoint: mean survival time, dose: 400.0 mg/kg/injection, schedule: Q01DX009 (ip), vehicle: saline with Tween-80.

Molecules are shown by their SMILES. Values joined by “and” are separate entries in the source; they are usually repeats but may differ in a detail not shown here. Identical values can stand only once. Inconclusive results and toxic doses are left out. Non-standard residues stand in square brackets, D forms with d. Residues, ends and D or L forms follow the SMILES beside them. ξ: configuration not given here. *: point of attachment. ξL = CC(C)CC(N)C(=O)O; ClAc = O=C(CCl)*

Turning to `CCCCCCCCCCCCCCCCCCCCCC(=O)Nc1ccn(C2OC(CO)C(O)C2O)c(=O)n1` (stereo unspecified), the T/C under setting [1] is 212 % of control, the T/C under setting [2] is 253 % of control and the T/C under setting [3] was 325 % of control.

For `O=[N+]([O-])c1ccc(N/N=C(/C(=N/Nc2ccc([N+](=O)[O-])cc2)c2ccccc2)c2ccccc2)cc1`, the T/C runs as follows: (endpoint: mean survival time, dose: 12.5 mg/kg/injection, schedule: Q01DX009 (ip), vehicle: other) 104 % of control; (endpoint: mean survival time, dose: 25.0 mg/kg/injection, schedule: Q01DX009 (ip), vehicle: other) 101 % of control; (endpoint: mean survival time, dose: 50.0 mg/kg/injection, schedule: Q01DX009 (ip), vehicle: other) 102 % of control; (endpoint: mean survival time, dose: 100.0 mg/kg/injection, schedule: Q01DX009 (ip), vehicle: other) 93 % of control; under setting [4], 93 % of control; (endpoint: mean survival time, dose: 200.0 mg/kg/injection, schedule: Q01DX009 (ip), vehicle: other) 93 % of control. The T/C is, setting by setting: under setting [5], 88 % of control; under setting [6], 88 % of control.

Take `OCC1OC(Oc2ccc(O)cc2)C(O)C(O)C1O` (stereo unspecified): the T/C under setting [7] is 103 % of control; the T/C under setting [8] was 101 % of control; the T/C under setting [9] is 103 % of control; the T/C under setting [10] is 117 % of control; the T/C under setting [11] was 95 % of control; the T/C under setting [12] is 101 % of control. Besides, under “endpoint: mean survival time, dose: 400.0 mg/kg/injection, schedule: Q01DX009 (ip), vehicle: saline”, the T/C was 100 % of control.

`O=S(=O)(/N=C1\c2ccccc2/C(=N\S(=O)(=O)c2ccccc2)C2C3C=CC(C3)C12)c1ccccc1` (stereo unspecified): the T/C was 107 % of control (endpoint: mean survival time, dose: 25.0 mg/kg/injection, schedule: Q01DX001 (ip), vehicle: saline sonified); 102 % of control (endpoint: mean survival time, dose: 50.0 mg/kg/injection, schedule: Q01DX001 (ip), vehicle: saline sonified); 101 % of control (endpoint: mean survival time, dose: 100.0 mg/kg/injection, schedule: Q01DX001 (ip), vehicle: saline sonified).

As to `CC(C)C(C(O)c1ccccc1)[N+](=O)[O-]` (stereo unspecified), the T/C reads like this: (endpoint: mean survival time, dose: 100.0 mg/kg/injection, schedule: Q01DX009 (ip), vehicle: saline sonified) 102 % of control; under setting [4], 102 % of control; (endpoint: mean survival time, dose: 200.0 mg/kg/injection, schedule: Q01DX009 (ip), vehicle: saline sonified) 102 % of control; under setting [5], 96 % of control; (endpoint: mean survival time, dose: 400.0 mg/kg/injection, schedule: Q01DX009 (ip), vehicle: saline sonified) 100 % of control; under setting [6], 100 % of control.

Turning to `CC(c1ccccc1)S(=O)[O-].[C-]#[O+].[C-]#[O+].[Fe+6].[c-]1[c-][c-][cH-][c-]1` (stereo unspecified), the T/C reads like this: (endpoint: mean survival time, dose: 25.0 mg/kg/injection, schedule: Q04DX003 (ip), vehicle: saline with Tween-80) 94 % of control; (endpoint: mean survival time, dose: 50.0 mg/kg/injection, schedule: Q04DX003 (ip), vehicle: saline with Tween-80) 100 % of control; under setting [4], 97 % of control.

Consider `CC(C)CC(NC(=O)CCl)C(=O)NCC(=O)O` (stereo unspecified) (ClAc-[ξL]-Gly-OH), for which the T/C was 96 % of control (endpoint: mean survival time, dose: 25.0 mg/kg/injection, schedule: Q01DX009 (ip), vehicle: saline with Tween-80); 96 % of control (endpoint: mean survival time, dose: 50.0 mg/kg/injection, schedule: Q01DX009 (ip), vehicle: saline with Tween-80); 94 % of control under setting [13].

Take `CCN(CC)C(=O)SCCSC(=O)N(CC)CC`: the T/C reads like this: (endpoint: mean survival time, dose: 25.0 mg/kg/injection, schedule: Q04DX002 (ip), vehicle: saline with Tween-80) 96 % of control; under setting [14], 104 % of control; under setting [1], 101 % of control; under setting [2], 91 % of control; under setting [3], 95 % of control.

Take `CS(=O)CSCC(N)C(=O)O` (stereo unspecified): the T/C is 107 % of control (endpoint: mean survival time, dose: 12.5 mg/kg/injection, schedule: Q01DX009 (ip), vehicle: water); 100 % of control (endpoint: mean survival time, dose: 25.0 mg/kg/injection, schedule: Q01DX009 (ip), vehicle: water); 102 % of control (endpoint: mean survival time, dose: 50.0 mg/kg/injection, schedule: Q01DX009 (ip), vehicle: water); 102 % of control (endpoint: mean survival time, dose: 100.0 mg/kg/injection, schedule: Q01DX009 (ip), vehicle: water); 100 % of control (endpoint: mean survival time, dose: 200.0 mg/kg/injection, schedule: Q01DX009 (ip), vehicle: water).

As for `O/N=C(\CN1CCOCC1)c1ccc(Cl)cc1`, the T/C is, setting by setting: under setting [7], 107 % of control; under setting [9], 96 % of control; under setting [11], 103 % of control.

`CC(C)CCC(=O)c1ccccc1`: the T/C runs as follows: under setting [14], 87 % of control; under setting [1], 97 % of control; under setting [2], 91 % of control.

As to `COC1OC2COC(c3ccccc3)OC2/C(=N/O)C1[n+]1ccccc1` (stereo unspecified), the T/C is 94 % of control (endpoint: mean survival time, dose: 25.0 mg/kg/injection, schedule: Q01DX001 (ip), vehicle: saline with Tween-80); 107 % of control (endpoint: mean survival time, dose: 50.0 mg/kg/injection, schedule: Q01DX001 (ip), vehicle: saline with Tween-80); 98 % of control and 102 % of control (endpoint: mean survival time, dose: 100.0 mg/kg/injection, schedule: Q01DX001 (ip), vehicle: saline with Tween-80).

Turning to `CC(C)(C)C1=C(N=[N+]=[N-])C(=O)C(C(C)(C)C)=C(N=[N+]=[N-])C1=O`, the T/C runs as follows: (endpoint: mean survival time, dose: 100.0 mg/kg/injection, schedule: Q01DX001 (ip), vehicle: other) 104 % of control; (endpoint: mean survival time, dose: 200.0 mg/kg/injection, schedule: Q01DX001 (ip), vehicle: other) 104 % of control; (endpoint: mean survival time, dose: 400.0 mg/kg/injection, schedule: Q01DX001 (ip), vehicle: other) 101 % of control.

For the compound `O=C(C[n+]1cccc(C(=O)Nc2ccc(Cl)cc2)c1)NCc1ccccc1`, the T/C was 97 % of control (endpoint: mean survival time, dose: 100.0 mg/kg/injection, schedule: Q04DX003 (ip), vehicle: saline); 94 % of control (endpoint: mean survival time, dose: 200.0 mg/kg/injection, schedule: Q04DX003 (ip), vehicle: saline); 102 % of control (endpoint: mean survival time, dose: 400.0 mg/kg/injection, schedule: Q04DX003 (ip), vehicle: saline).

`CS(=O)(=O)C([N+](=O)[O-])S(C)(=O)=O`: the T/C by setting is: under setting [8], 101 % of control; under setting [10], 101 % of control; under setting [12], 97 % of control.

Turning to `CCC(=O)[O][Bi]([c]1ccccc1)[c]1ccccc1`, the T/C runs as follows: (endpoint: median survival time, dose: 3.12 mg/kg/injection, schedule: Q01DX009 (ip), vehicle: Klucel (hydroxypropylcellulose) (HPC)) 108 % of control; (endpoint: median survival time, dose: 6.25 mg/kg/injection, schedule: Q01DX009 (ip), vehicle: Klucel (hydroxypropylcellulose) (HPC)) 108 % of control; (endpoint: median survival time, dose: 12.5 mg/kg/injection, schedule: Q01DX009 (ip), vehicle: Klucel (hydroxypropylcellulose) (HPC)) 103 % of control; (endpoint: median survival time, dose: 25.0 mg/kg/injection, schedule: Q01DX009 (ip), vehicle: Klucel (hydroxypropylcellulose) (HPC)) 112 % of control and 111 % of control.

With `COC(=O)c1cc(C)[nH]c(=O)c1C#N`, the T/C was 100 % of control under setting [13]; 95 % of control under setting [4]; 100 % of control (endpoint: mean survival time, dose: 200.0 mg/kg/injection, schedule: Q01DX009 (ip), vehicle: saline with Tween-80); 98 % of control under setting [5]; 94 % of control under setting [15]; 96 % of control under setting [6].

`NC(=O)N1c2c(nc(N)[nH]c2=O)NCC1CNc1ccc(C(=O)NC(CCC(=O)O)C(=O)O)cc1` (stereo unspecified): the T/C (endpoint: mean survival time, dose: 100.0 mg/kg/injection, schedule: Q01DX001 (ip), vehicle: sodium bicarbonate) was 102 % of control; the T/C (endpoint: mean survival time, dose: 200.0 mg/kg/injection, schedule: Q01DX001 (ip), vehicle: sodium bicarbonate) is 97 % of control; the T/C (endpoint: mean survival time, dose: 400.0 mg/kg/injection, schedule: Q01DX001 (ip), vehicle: sodium bicarbonate) is 96 % of control.

Consider `O=NN(CCCl)C(=O)Nc1c[nH]c2ccccc12`, for which the T/C is 96 % of control (endpoint: mean survival time, dose: 177.0 mg/kg/injection, schedule: Q01DX001 (ip), vehicle: saline with Tween-80); 98 % of control (endpoint: mean survival time, dose: 177.0 mg/kg/injection, schedule: Q01DX009 (ip), vehicle: saline with Tween-80); 97 % of control (endpoint: mean survival time, dose: 265.0 mg/kg/injection, schedule: Q01DX001 (ip), vehicle: saline with Tween-80); 101 % of control (endpoint: mean survival time, dose: 265.0 mg/kg/injection, schedule: Q01DX009 (ip), vehicle: saline with Tween-80); 92 % of control (endpoint: mean survival time, dose: 400.0 mg/kg/injection, schedule: Q01DX001 (ip), vehicle: saline with Tween-80); 97 % of control under setting [15]. Further, where the note is “endpoint: mean survival time, dose: 600.0 mg/kg/injection, schedule: Q01DX001 (ip), vehicle: saline with Tween-80”, the T/C is 91 % of control.
